The values below come from US20170000749A1, “Methods for Treating Cognitive Disorders Using Inhibitors of Histone Deacetylase” (Forum Pharmaceuticals, Inc., priority 2008, published 2017).

Where two headings read alike, the source gives them in different places.

The term IC50 denotes the midpoint of a concentration-inhibition curve.

For assay [1], the target named is one or more of HDAC-1, HDAC-2, HDAC-3, HDAC-4, HDAC-5, HDAC-6, HDAC-7, HDAC-8, HDAC-9, HDAC-10 and HDAC-11. Nature of the assay: Inhibition of Histone Deacetylase Enzymatic Activity (Boc-Lys(Ac)-AMC substrate, Fluor-de-Lys developer). Conditions: read-out: HDAC Inhibition (IC50 μM) HDAC Enzyme. The class given is biochemical. The method, then: The following protocol is used to assay the compounds of the disclosure.
The mixture is pre-incubated for 5 minutes at room temperature. The reaction is started by bringing the temperature to 37° C. and adding 16 μl substrate. Total reaction volume is 50 μl.
In the Tables 8, 9 and 10, A≦0.05 μM; 0.05 μM<B≦0.1 μM; 0.1 μM<C≦1 μM; and 1 μM<D≦10 μM.

Assay [2] relates to HDAC activity in primary mouse cortical cultures. Nature of the assay: Whole-Cell Histone Deacetylase (HDAC) Inhibition Assay in Primary Mouse Cortical Cultures. The class given is cell-based. Conditions: whole-cell (WC), mouse cortical neurons, read-out: HDAC Inhibition (IC50 μM) WC mouse cortical neurons. The method, then:
Primary neocortical cultures are established through the dissection of the neocortex from E17 embryos harvested from time-pregnant Balb/C mice. Following dissection, the neocortical tissue specimens undergo digestion by incubation at 37° C. for 10 minutes in dissection medium (1×HBSS/10 mM HEPES/1 mM Sodium Pyruvate) supplemented with (0.25%) Trypsin and (0.1%) DNase I. Digested tissue is washed and resuspended in plating medium (NeuroBasal/10% HS/0.5 mM L-Glutamine (Invitrogen Corporation)) for trituration. Additional plating medium is added, and the contents are passed over a 70 um cell-strainer. The cell-density is quantified using a hemacytometer, and dilutions are made to allow for the plating of 50000 cells/well/100 uL in 96-well PDL-coated plates. Plates are incubated for 4-5 hours in 37° C./5% CO2-incubator, after which time the entire volume is exchanged to feeding medium (NeuroBasal/2% B-27 Serum-free supplement/0.5 mM L-Glutamine/1% Penicillin-Streptomycin (Invitrogen Corporation)). The cultures undergo two 50% fresh feeding medium exchanges at 3 days in vitro (DIV3), and again at DIV7.
Compounds for testing are resuspended in dimethyl sulphoxide (DMSO), and further diluted in DMSO for a ten-point dose-response curve, with appropriate controls. Each master plate is assayed in triplicate. […] Three DIV9 culture plates are leveled to 50 uL/well, onto which each has overlaid 50 uL/well of the diluted daughter plate. The plates are returned to the 37° C./5% CO2-incubator for 16-18 hours.
The next step of the assay involves the exposure of a HDAC colorimetric substrate, comprising an acetylated lysine side chain, to the compound-treated neuronal cultures. Based on the ability of the compound to inhibit HDAC activity in the neuronal cultures, the substrate is deacetylated by HDACs, and subsequently sensitized. […] Compound-incubated culture plates are again leveled to 50 uL/well and 2 uL/well of 7.5 mM BOC-Lys (Ac)-AMC substrate is added and thoroughly mixed. Plates are returned to the 37° C./5% CO2-incubator for 1 hour.
The final addition to the culture plates entails treatment with a Fluor de Lys™-based developer (BIOMOL Research Laboratories, Inc.) to produce a fluorophore, which is analyzed using a spectrophotometer. The developer solution (1×Fluor de Lys™/1% NP-40/1 uM TSA in HDAC Buffer Solution) is prepared, and 50 uL/well is added to each of the wells of the culture plates. […] The plates are returned to the 37° C./5% CO2-incubator for 10-15 minutes, after which time, they are removed and set in the dark at room temperature for 5-10 minutes.
Primary neocortical cultures were established through the dissection of the neocortex from E17 embryos harvested from time-pregnant Balb/C mice. Following dissection, the neocortical tissue specimens underwent digestion by incubation at 37° C. for 10 minutes in dissection medium (1×HBSS/10 mM HEPES/1 mM Sodium Pyruvate) supplemented with (0.25%) Trypsin and (0.1%) DNase I. Digested tissue was washed and resuspended in plating medium (NeuroBasal/10% HS/0.5 mM L-Glutamine (Invitrogen Corporation)) for trituration. Additional plating medium was added, and the contents passed over a 70 um cell-strainer. The cell-density was quantified using a hemacytometer, and dilutions made to allow for the plating of 50000 cells/well/100 uL in 96-well PDL-coated plates. Plates were incubated for 4-5 hours in 37° C./5% CO2-incubator, after which time the entire volume was exchanged to feeding medium (NeuroBasal/2% B-27 Serum-free supplement/0.5 mM L-Glutamine/l % Penicillin-Streptomycin (Invitrogen Corporation)). The cultures underwent two 50% fresh feeding medium exchanges at 3 days in vitro (DIV3), and again at DIV7.
Compounds for testing were resuspended in dimethyl sulphoxide (DMSO), and further diluted in DMSO for a ten-point dose-response curve, with appropriate controls. Each master plate was assayed in triplicate.

For the compound `O=C(NO)c1cnc(NC2c3ccccc3-c3ccccc32)nc1` [2-(9H-fluoren-9-ylamino)-N-hydroxypyrimidine-5-carboxamide], the IC50 fell in the range of 0.1 to 1 µM in assay [1] (Table 10) and 5 to 15 µM in assay [2] (Table 10).
Regarding `O=C(NO)c1cnc(N2C[C@@H]3C[C@H]2CN3)nc1` [2-((1S,4S)-2,5-diazabicyclo[2.2.1]heptan-2-yl)-N-hydroxypyrimidine-5-carboxamide], the values for the IC50 in assay [1] (Table 9) and in assay [2] (Table 9) were 0.1 to 1 µM and 5 to 15 µM, respectively.
Taken in the same sequence, the figures for `O=C(NO)c1cnc(N2C[C@@H]3C[C@H]2CN3c2ccc3c(c2)OC(F)(F)O3)nc1` [2-((1S,4S)-5-(2,2-difluorobenzo[d][1,3]dioxol-5-yl)-2,5-diazabicyclo[2.2.1]heptan-2-yl)-N-hydroxypyrimidine-5-carboxamide] were less than 0.05 µM and 1 to 5 µM.
For `O=C(NO)c1cnc(N2C[C@@H]3C[C@H]2CN3C(=O)C(c2ccccc2)c2ccccc2)nc1` [2-((1S,4S)-5-(2,2-diphenylacetyl)-2,5-diazabicyclo[2.2.1]heptan-2-yl)-N-hydroxypyrimidine-5-carboxamide], the results for the IC50 in assay [1] (Table 9) and in assay [2] (Table 9) were 0.05 to 0.1 µM and 1 to 5 µM, respectively.
Taken in the same sequence, the figures for `O=C(NO)c1cnc(N2C[C@@H]3C[C@H]2CN3c2ccc(C(F)(F)F)cc2F)nc1` [2-((1S,4S)-5-(2-fluoro-4-(trifluoromethyl)phenyl)-2,5-diazabicyclo[2.2.1]heptan-2-yl)-N-hydroxypyrimidine-5-carboxamide] were less than 0.05 µM and 1 to 5 µM.
As for `O=C(NO)c1cnc(N2C[C@@H]3C[C@H]2CN3c2cc(C(F)(F)F)cc(C(F)(F)F)c2)nc1` [2-((1S,4S)-5-(3,5-bis(trifluoromethyl)phenyl)-2,5-diazabicyclo[2.2.1]heptan-2-yl)-N-hydroxypyrimidine-5-carboxamide], the IC50 in assay [1] (Table 9) is less than 0.05 µM; in assay [2] (Table 9), 1 to 5 µM.
For `CN(C)Cc1cccc(N2C[C@@H]3C[C@H]2CN3c2ncc(C(=O)NO)cn2)c1` [2-((1S,4S)-5-(3-((dimethylamino)methyl)phenyl)-2,5-diazabicyclo[2.2.1]heptan-2-yl)-N-hydroxypyrimidine-5-carboxamide], the figures for the IC50 in assay [1] (Table 9) and in assay [2] (Table 9) were less than 0.05 µM and less than 1 µM, respectively.
On to `O=C(NO)c1cnc(N2C[C@@H]3C[C@H]2CN3c2cccc(OC(F)F)c2)nc1` [2-((1S,4S)-5-(3-(difluoromethoxy)phenyl)-2,5-diazabicyclo[2.2.1]heptan-2-yl)-N-hydroxypyrimidine-5-carboxamide], for which the figures for the IC50 in assay [1] (Table 9) and in assay [2] (Table 9) were less than 0.05 µM and less than 1 µM, respectively.
Taken in the same sequence, the figures for `CN(C)C(=O)c1cccc(N2C[C@@H]3C[C@H]2CN3c2ncc(C(=O)NO)cn2)c1` [2-((1S,4S)-5-(3-(dimethylcarbamoyl)phenyl)-2,5-diazabicyclo[2.2.1]heptan-2-yl)-N-hydroxypyrimidine-5-carboxamide] were less than 0.05 µM and less than 1 µM.
Taken in the same sequence, the figures for `O=C(NO)c1cnc(N2C[C@@H]3C[C@H]2CN3c2cccc(F)c2)nc1` [2-((1S,4S)-5-(3-fluorophenyl)-2,5-diazabicyclo[2.2.1]heptan-2-yl)-N-hydroxypyrimidine-5-carboxamide] were less than 0.05 µM and less than 1 µM.
Consider `O=C(NO)c1cnc(N2C[C@@H]3C[C@H]2CN3c2ccc(Cl)cc2)nc1` [2-((1S,4S)-5-(4-chlorophenyl)-2,5-diazabicyclo[2.2.1]heptan-2-yl)-N-hydroxypyrimidine-5-carboxamide], for which the IC50 in assay [1] (Table 9) is less than 0.05 µM; in assay [2] (Table 9), less than 1 µM.
Taken in the same sequence, the figures for `O=C(NO)c1cnc(N2C[C@@H]3C[C@H]2CN3c2ccc(F)cc2)nc1` [2-((1S,4S)-5-(4-fluorophenyl)-2,5-diazabicyclo[2.2.1]heptan-2-yl)-N-hydroxypyrimidine-5-carboxamide] were 0.05 to 0.1 µM and less than 1 µM.
Taken in the same sequence, the figures for `O=C(NO)c1cnc(N2C[C@@H]3C[C@H]2CN3c2cccc3nonc23)nc1` [2-((1S,4S)-5-(benzo[c][1,2,5]oxadiazol-4-yl)-2,5-diazabicyclo[2.2.1]heptan-2-yl)-N-hydroxypyrimidine-5-carboxamide] were less than 0.05 µM and less than 1 µM.
Taken in the same sequence, the figures for `O=C(NO)c1cnc(N2C[C@@H]3C[C@H]2CN3c2ccc3nonc3c2)nc1` [2-((1S,4S)-5-(benzo[c][1,2,5]oxadiazol-5-yl)-2,5-diazabicyclo[2.2.1]heptan-2-yl)-N-hydroxypyrimidine-5-carboxamide] were less than 0.05 µM and less than 1 µM.
For the compound `O=C(NO)c1cnc(N2C[C@@H]3C[C@H]2CN3c2ccc3nsnc3c2)nc1` [2-((1S,4S)-5-(benzo[c][1,2,5]thiadiazol-5-yl)-2,5-diazabicyclo[2.2.1]heptan-2-yl)-N-hydroxypyrimidine-5-carboxamide], the IC50 is less than 0.05 µM in assay [1] (Table 9) and less than 1 µM in assay [2] (Table 9).
Taken in the same sequence, the figures for `O=C(NO)c1cnc(N2C[C@@H]3C[C@H]2CN3c2ccc3c(c2)OCO3)nc1` [2-((1S,4S)-5-(benzo[d][1,3]dioxol-5-yl)-2,5-diazabicyclo[2.2.1]heptan-2-yl)-N-hydroxypyrimidine-5-carboxamide] were less than 0.05 µM and less than 1 µM.
Taken in the same sequence, the figures for `O=C(NO)c1cnc(N2C[C@@H]3C[C@H]2CN3c2noc3ccccc23)nc1` [2-((1S,4S)-5-(benzo[d]isoxazol-3-yl)-2,5-diazabicyclo[2.2.1]heptan-2-yl)-N-hydroxypyrimidine-5-carboxamide] were less than 0.05 µM and less than 1 µM.
Taken in the same sequence, the figures for `O=C(NO)c1cnc(N2C[C@@H]3C[C@H]2CN3C(c2ccccc2)c2ccccc2)nc1` [2-((1S,4S)-5-benzhydryl-2,5-diazabicyclo[2.2.1]heptan-2-yl)-N-hydroxypyrimidine-5-carboxamide] were less than 0.05 µM and 1 to 5 µM.
As for `O=C(NO)c1cnc(N2C[C@@H]3C[C@H]2CN3C(=O)c2ccccc2)nc1` [2-((1S,4S)-5-benzoyl-2,5-diazabicyclo[2.2.1]heptan-2-yl)-N-hydroxypyrimidine-5-carboxamide], the half-inhibitory concentration (IC50) is less than 0.05 µM in assay [1] (Table 9) and less than 1 µM in assay [2] (Table 9).
Taken in the same sequence, the figures for `O=C(NO)c1cnc(N2C[C@@H]3C[C@H]2CN3Cc2ccccc2)nc1` [2-((1S,4S)-5-benzyl-2,5-diazabicyclo[2.2.1]heptan-2-yl)-N-hydroxypyrimidine-5-carboxamide] were 0.1 to 1 µM and 1 to 5 µM.
In the case of `O=C(NO)c1cnc(NC(c2ccccc2)c2ccccc2)nc1` [2-(benzhydrylamino)-N-hydroxypyrimidine-5-carboxamide], the IC50 in assay [1] (Table 10) was less than 0.05 µM; in assay [2] (Table 10), less than 1 µM.
Taken in the same sequence, the figures for `O=C(NO)c1cnc(OC(c2ccc(F)cc2)c2ccc(F)cc2)nc1` [2-(bis(4-fluorophenyl)methoxy)-N-hydroxypyrimidine-5-carboxamide] were 0.1 to 1 µM and more than 15 µM.
Taken in the same sequence, the figures for `O=C(NO)c1cnc(ON=C(c2ccccc2)c2ccccc2)nc1` [2-(diphenylmethyleneaminooxy)-N-hydroxypyrimidine-5-carboxamide] were 1 to 10 µM and 5 to 15 µM.
